Where “and” joins values, the source holds several entries; their conditions need not be identical. Identical values can stand only once. Counter-ions that a name gives are not always drawn. Like-named read-outs stand apart in the source and are kept apart here.
Legend:
[1] = target: human TMPRSS2 (Homo sapiens, UniProt O15393); assay: cell-based
[2] = target: T1, Recombinant human matriptase (Homo sapiens, UniProt Q9Y5Y6); assay: Protease selectivity, Ki on recombinant protease; type: biochemical
T1 construct: made in house
T1 sequence (Q9Y5Y6 1-855): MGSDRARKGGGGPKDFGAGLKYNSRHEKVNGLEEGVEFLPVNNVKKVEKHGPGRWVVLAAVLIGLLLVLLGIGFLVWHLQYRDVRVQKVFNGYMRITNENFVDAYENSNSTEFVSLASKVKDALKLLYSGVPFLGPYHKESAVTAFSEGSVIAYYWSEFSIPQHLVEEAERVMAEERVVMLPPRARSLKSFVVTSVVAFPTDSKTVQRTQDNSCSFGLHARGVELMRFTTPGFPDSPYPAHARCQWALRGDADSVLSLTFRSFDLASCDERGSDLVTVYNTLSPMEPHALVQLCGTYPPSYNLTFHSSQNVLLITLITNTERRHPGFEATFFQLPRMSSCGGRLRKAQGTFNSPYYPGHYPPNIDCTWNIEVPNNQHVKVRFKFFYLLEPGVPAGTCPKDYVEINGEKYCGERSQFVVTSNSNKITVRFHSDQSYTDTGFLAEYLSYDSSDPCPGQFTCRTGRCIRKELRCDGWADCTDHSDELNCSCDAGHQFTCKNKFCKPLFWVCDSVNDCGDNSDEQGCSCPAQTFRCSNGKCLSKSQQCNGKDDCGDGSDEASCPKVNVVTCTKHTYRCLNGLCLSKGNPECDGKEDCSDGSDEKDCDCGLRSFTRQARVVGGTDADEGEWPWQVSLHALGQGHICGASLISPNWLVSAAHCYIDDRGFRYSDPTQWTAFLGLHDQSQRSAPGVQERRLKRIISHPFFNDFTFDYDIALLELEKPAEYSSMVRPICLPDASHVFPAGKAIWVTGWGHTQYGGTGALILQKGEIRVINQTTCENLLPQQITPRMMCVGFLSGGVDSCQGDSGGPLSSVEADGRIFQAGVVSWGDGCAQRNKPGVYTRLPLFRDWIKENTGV

[3] = target: T2, Recombinant human DESC1 (Homo sapiens, UniProt Q9UL52); assay: Protease selectivity, Ki on recombinant protease; type: biochemical
T2 construct: made in house
T2 sequence (Q9UL52 1-423): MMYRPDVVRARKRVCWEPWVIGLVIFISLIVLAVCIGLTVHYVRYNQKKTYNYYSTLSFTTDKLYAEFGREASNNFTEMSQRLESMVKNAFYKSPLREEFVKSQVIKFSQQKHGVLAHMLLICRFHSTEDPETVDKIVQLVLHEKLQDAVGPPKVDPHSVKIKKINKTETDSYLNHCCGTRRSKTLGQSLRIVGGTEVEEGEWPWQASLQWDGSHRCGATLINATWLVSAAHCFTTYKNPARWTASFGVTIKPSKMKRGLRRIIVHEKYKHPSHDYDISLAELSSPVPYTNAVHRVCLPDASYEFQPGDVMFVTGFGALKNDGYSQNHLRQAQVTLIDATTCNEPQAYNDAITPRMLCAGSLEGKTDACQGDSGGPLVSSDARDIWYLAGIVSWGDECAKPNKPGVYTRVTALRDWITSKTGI

[4] = tested on: SARS-CoV-2 lineage B strain (VIDO); assay: microbe, parasite or virus in culture; type: cell-based
[5] = tested on: SARS-CoV-2 (VIDO); type: cell-based; set-up: plaque assay titre, Figure 2c: unit not given beside the values; conditions: for reduction of viral titre (plaque assay): supernatant of infected Calu-3 cells, vs DMSO-treated infected control; for plaque assay titre, Figure 2c: replicate columns, listed as Cm
[6] = tested on: Vero E6 cells; assay: Cytotoxicity assay (Cell Titer-Glo 2.0) in Vero E6 cells; type: cell-based; conditions: 10 μM compound, 24 h, relative to vehicle (DMSO 0.01%); single experiments N1-N4; 10 µM
Procedure: Calu-3 and Vero E6 cells (2500 or 10,000 cells for samples, 80–20,000 cells for standard curve) were seeded in 96-well plates. Following a 24-h incubation at 37 °C, 5% CO2, cells were washed with D-PBS and compounds added (10 µM) for an additional 24-h incubation. Cellular viability was assessed using Cell Titer-Glo 2.0 Cell Viability Assay (Promega) according to the manufacturer’s instructions. The number of viable cells was extrapolated using the standard curve. Cellular viability in Vero E6 cells was expressed relative (%) to vehicle-treated cells. Data are from four independent experiments (mean ± s.d.).

[7] = tested on: SARS-CoV-2; set-up: method as in PMID 32142651, PMID 33844653; conditions: adenovirus hACE2 model; cited from earlier work
[8] = tested on: SARS-CoV-2; set-up: method as in PMID 33903855; conditions: hospitalized patients with COVID-19; cited from earlier work

Sequence of human TMPRSS2 (O15393 whole entry): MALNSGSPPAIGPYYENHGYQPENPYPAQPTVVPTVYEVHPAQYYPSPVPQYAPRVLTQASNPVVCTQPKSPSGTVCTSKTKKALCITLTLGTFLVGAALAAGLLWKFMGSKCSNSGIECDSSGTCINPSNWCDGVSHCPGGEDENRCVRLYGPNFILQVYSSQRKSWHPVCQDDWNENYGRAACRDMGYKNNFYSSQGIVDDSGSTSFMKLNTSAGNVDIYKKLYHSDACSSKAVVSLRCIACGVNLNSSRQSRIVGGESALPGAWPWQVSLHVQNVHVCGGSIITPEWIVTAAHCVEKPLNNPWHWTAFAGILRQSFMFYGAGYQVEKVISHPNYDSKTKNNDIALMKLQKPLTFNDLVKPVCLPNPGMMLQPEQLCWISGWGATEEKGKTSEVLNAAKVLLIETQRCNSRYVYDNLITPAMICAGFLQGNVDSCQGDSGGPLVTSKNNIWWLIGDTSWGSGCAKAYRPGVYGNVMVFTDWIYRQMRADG

With CN(C)C(=O)COC(=O)Cc1ccc(OC(=O)c2ccc(NC(=N)N)cc2)cc1 [Camostat mesylate, reference compound] as the compound, how does the “TMPRSS2 activity (%)” value ([1]; Figure 1B, single experiments N1-N3, listed as Cm) read?
The value was 51.0758% and 41.2255% and 43.3144%.

And the inhibition at 0.01 µM ([1]; Vero C1008, 10 nM compound, 24 h, vs untreated/vehicle TMPRSS2-expressing Vero E6 cells, read-out: inhibition of TMPRSS2 activity (reduction of substrate proteolysis))?
The inhibition at 0.01 µM was 56%.

What about the Ki ([2]; mean ± s.d., max concentration 10 µM, read-out: Ki Matriptase) of the same compound?
Its Ki is 5.6 ± 1 nM.

What about the Ki ([2]; single experiments N1-N3, Figure 1D, read-out: Individual Ki, Matriptase) of the same compound?
The Ki was 6.79 nM and 5.15 nM and 4.98 nM.

What about the Ki ([3]; mean ± s.d., max concentration 10 µM, read-out: Ki DESC1) of the same compound?
Its Ki is 5.8 ± 3.4 nM.

And the Ki ([3]; single experiments N1-N3, Figure 1D, read-out: Individual Ki, Desc1)?
Its Ki is 7.88 nM and 7.73 nM and 1.85 nM.

And the Nucleocapsid ([4]; Figure 2a, two replicates, DMSO control about 91-94, listed as Cm)?
Its Nucleocapsid is 8.612 and 24.2399.

And the dsRNA ([4]; Figure 2a, two replicates, DMSO control about 93-95, listed as Cm)?
The dsRNA was 17.4079 and 31.7604.

And the EC50 ([4]; Severe acute respiratory syndrome coronavirus 2, Calu-3, read-out: SARS-CoV-2 VIDO Nucleocapsid EC50 ± SE)?
The EC50 was 10.6 ± 8.4 nM.

What about the inhibition at 0.1 µM ([4]; Severe acute respiratory syndrome coronavirus 2, Calu-3, read-out: inhibition of SARS-CoV-2 infection) of the same compound?
The inhibition at 0.1 µM was greater than 83%.

What about the “Figure 2b dose-response, Mean” value ([4]; log [C] (nM) 0.20412) of the same compound?
The value was 84.468.

What about the “Figure 2b dose-response, Mean” value ([4]; log [C] (nM) 0.90309) of the same compound?
Its value is 76.973.

What about the “Figure 2b dose-response, Mean” value ([4]; log [C] (nM) 1.60206) of the same compound?
Its value is 24.9288.

What about the “Figure 2b dose-response, Mean” value ([4]; log [C] (nM) 2.30103) of the same compound?
Its value is 0.8428.

And the “Figure 2b dose-response, Mean” value ([4]; log [C] (nM) 3)?
The value was 0.2267.

And the “Figure 2b dose-response, Mean” value ([4]; log [C] (nM) -0.49485)?
The value was 80.5882.

What about the “Figure 2b dose-response, Mean” value ([4]; log [C] (nM) -1.19382) of the same compound?
Its value is 94.4767.

What about the “reduction of viral titre (plaque assay)” value ([5]; 40 nM) of the same compound?
The value was “approximately half-log”.

What about the “plaque assay titre, Figure 2c” value ([5]; 40 nM) of the same compound?
Its value is 1000 (6×) and 11000 (2×) and 20000 and 10000 (2×) and 80000 and 330000 and 30000 and 170000.

What about the “reduction of viral titre (plaque assay)” value ([5]; 200 nM) of the same compound?
The value was “approximately 1.5 log”.

What about the “plaque assay titre, Figure 2c” value ([5]; 200 nM) of the same compound?
Its value is 1000 (9×) and 40000 and 10000 (3×) and 130000 and 30000 and 20000.

What about the “% Viability of Vero E6 cells” value [6] of the same compound?
The value was 115.453% and 94.4731% and 96.0284% and 136.615%.

And the protection against infection [7]?
The protection against infection was “no significant protection against infection was observed”.

What about the “effect on the time to recovery and incidence of death” value [8] of the same compound?
The value was “no effect”.

Source: PMC9095466 (Nature, 2022)
